The record followed here is patent publication US8841302B2, “HCV inhibitor and therapeutic agent combinations” (PTC Therapeutics, Inc., priority 2009, dated 2014).

For this experiment, the system named is HCV replicon RNA in replicon cells. In words: Replicon RNA response to antiviral agent(s), real time PCR (Taqman assay). Type of experiment: cell-based. The note with it: replicon cells treated 3 days. The procedure:
Replicon cells were seeded at ˜5000 cells/well in 96-well collagen I-coated Biocoat plates (Becton Dickinson). At 24 hrs post-seeding, a series of replicon cells were treated with a HCV protease inhibitor and a HCV inhibitor. The final concentration of DMSO was 0.5%, fetal bovine serum was 10%, and G418 (an aminoglycoside used as a selective agent) was 500 μg/mL.
To each concentration of Compound 10p, HCV inhibitor Compound 31 was titrated. After 3 days, the cells were washed with PBS and lysed in 1× Cell Lysis Buffer (Ambion cat #8721).
The replicon RNA level was measured using real time PCR (Taqman assay). The ampicon was located in NS5b. The PCR primers used were: 5B.2F, ATGGACAGGCGCCCTGA (SEQ ID NO: 1); 5B.2R, […] (SEQ ID NO: 2); the probe sequence was FAM-labeled CACGCCATGCGCTGCGG (SEQ ID NO: 3). GAPDH RNA was used as endogenous control and was amplified in the same reaction as NS5b (multiplex PCR) using primers and VIC-labeled probe recommended by the manufacturer (PE Applied Biosystem). The real-time RT-PCR reactions were run on ABI PRISM 7900HT Sequence Detection System using the following program: 48° C. for 30 min, 95° C. for 10 min, 40 cycles of 95° C. for 15 sec, 60° C. for 1 min. The ΔCT values (CT5B-CTGAPDH) were plotted against test compound concentration and fitted to the sigmoid dose response model using Graphpad PRISM software (Graphpad Software Inc.). The half maximal inhibitory concentration (IC50) is the concentration necessary to achieve ΔCT=1 over the projected baseline. The 90% maximal inhibitory concentration (IC90) is the concentration necessary to achieve ΔCT=3.2 over the baseline. Alternatively, to quantitate the absolute amount of replicon RNA, a standard curve was established by including serially diluted T7 transcripts of replicon RNA in the Taqman assay. All Taqman reagents were from PE Applied Biosystem.
(In general: A replicon is a self-replicating genome or part of one, used to study replication in cells.)

Molecules are shown by their SMILES.

For the compound `CC(C)(C)NC(=O)N[C@H](C(=O)N1C[C@H]2[C@@H]([C@H]1C(=O)NC(CC1CCC1)C(=O)C(N)=O)C2(C)C)C(C)(C)C` (stereo partly drawn) [Cpd 10p, (1R,2S,5S)-N-(4-amino-1-cyclobutyl-3,4-dioxobutan-2-yl)-3-((S)-2-(3-tert-butylureido)-3,3-dimethylbutanoyl)-6,6-dimethyl-3-azabicyclo[3.1.0]hexane-2-carboxamide, reference compound], the “relative inhibition (logarithmic scale) of replicon RNA level” value (shortened to “relative inhibition (logarithmic scale)”) (Cpd 10p 0.19 μM alone (Compound 31 0 μM)) is reported as −0.11 and the “relative inhibition (logarithmic scale)” value (Cpd 10p 1.5 μM alone (Compound 31 0 μM)) is −1.52.
Take `N#Cc1c(-c2ccc(S(=O)(=O)NC(CF)CF)cn2)n(C2CCC2)c2cc(OC(F)F)ccc12` [Compound 31, 6-[3-cyano-1-cyclobutyl-6-(difluoromethoxy)-1H-indol-2-yl]-N-(1,3-difluoropropan-2-yl)pyridine-3-sulfonamide]: the “relative inhibition (logarithmic scale)” value (Compound 31 0.045 μM in combination with Cpd 10p 0.19 μM) is on record as −1.16, the “relative inhibition (logarithmic scale)” value (Compound 31 0.045 μM in combination with Cpd 10p 1.5 μM) is on record as −1.72, the “relative inhibition (logarithmic scale)” value (Compound 31 0.405 μM in combination with Cpd 10p 0.19 μM) was −1.73 and the “relative inhibition (logarithmic scale)” value (Compound 31 0.405 μM in combination with Cpd 10p 1.5 μM) is −2.02.
